Tests used:
human (α4)3(β2)2 nAChR = human (α4)3(β2)2 nAChR (Homo sapiens, UniProt P17787+P43681); experiment: Two-electrode voltage-clamp recording, (α4)3(β2)2 nAChRs expressed in Xenopus oocytes (α4:β2 cRNA 10:1); details: for remaining activity at 100 µM: read-out: (α4)3(β2)2 nAChR (% control response ACh)
Description: (§2) To achieve heterologous expression of human α4β2 nAChRs in two distinct subunit stoichiometries [(α4)2(β2)3 and (α4)3(β2)2], a well-established protocol was employed in which Xenopus laevis oocytes were injected with α4 and β2 cRNA in ratios of 1:10 and 10:1, respectively.[19],[20] […] Oocytes were injected, using a Drummond variable volume microinjector, with 32.2 nL of cRNA containing either a mixture of 30 ng/μL human α4 and 300 ng/μL human β2 or 300 ng/μL human α4 and 30 ng/μL human β2 cRNAs.
(§3) Xenopus were anesthetized by immersion in 0.2% MS222 for 15 min (or until complete anesthesia was confirmed by absence of leg-withdrawal and righting reflex), followed by cranial concussion, decapitation, and pithing. Xenopus oocytes were isolated, maintained, and injected with cRNA, as described previously.[21] […] Application of compounds was controlled by LabChart software (AD Instruments) using a BPS-8 solenoid valve solution exchange system (ALA Scientific Inc.). Typically, agonists were applied for 5 s or until a plateau in the response was observed. Antagonists were preapplied for 30 s and then coapplied with agonist for 5 s or until a plateau in the response was observed.
(§4) For individual pairwise comparisons, statistical significance was determined using unpaired Student’s t tests or ANOVA for multiple comparisons. Dose–response curves were fitted by GraphPad Prism, using the following equation (where I is the current, Imax is the maximum current, the EC50 is the concentration of agonist that elicits a half-maximal response, and nH is the Hill coefficient): [drawing 1]

human (α4)2(β2)3 nAChR = molecular target: T1, human (α4)2(β2)3 nAChR (Homo sapiens, UniProt P17787+P43681); experiment: Two-electrode voltage-clamp recording, (α4)2(β2)3 nAChRs expressed in Xenopus oocytes (α4:β2 cRNA 1:10); type: cell-based; details: for remaining activity at 100 µM: read-out: (α4)2(β2)3 nAChR (% control response to ACh); for stoichiometry selectivity of antagonism, (α4)2(β2)3 versus (α4)3(β2)2 nAChRs: 100 μM antibiotic coapplied with EC50 concentration of ACh, compared with (α4)3(β2)2
T1 construct: expressed in transfected cells; host or cells: Xenopus laevis oocytes (cRNA injection)
T1 sequence (P43681 27-627): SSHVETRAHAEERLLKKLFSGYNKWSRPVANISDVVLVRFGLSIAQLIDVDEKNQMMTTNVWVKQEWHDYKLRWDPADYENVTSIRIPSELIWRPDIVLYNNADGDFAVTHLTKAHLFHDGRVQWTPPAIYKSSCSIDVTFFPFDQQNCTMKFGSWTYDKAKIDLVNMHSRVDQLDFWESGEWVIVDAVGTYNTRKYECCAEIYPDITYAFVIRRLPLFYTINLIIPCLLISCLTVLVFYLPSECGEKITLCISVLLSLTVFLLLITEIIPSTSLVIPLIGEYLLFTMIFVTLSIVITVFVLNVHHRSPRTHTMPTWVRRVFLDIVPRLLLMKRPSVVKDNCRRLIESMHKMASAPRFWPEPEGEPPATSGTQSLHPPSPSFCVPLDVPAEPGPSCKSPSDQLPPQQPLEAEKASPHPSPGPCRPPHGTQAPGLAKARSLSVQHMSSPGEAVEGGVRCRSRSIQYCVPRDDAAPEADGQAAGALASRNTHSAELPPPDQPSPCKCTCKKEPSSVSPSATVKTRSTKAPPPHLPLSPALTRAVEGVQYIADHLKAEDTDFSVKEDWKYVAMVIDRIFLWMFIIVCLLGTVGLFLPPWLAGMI
T1 sequence (P17787 26-502): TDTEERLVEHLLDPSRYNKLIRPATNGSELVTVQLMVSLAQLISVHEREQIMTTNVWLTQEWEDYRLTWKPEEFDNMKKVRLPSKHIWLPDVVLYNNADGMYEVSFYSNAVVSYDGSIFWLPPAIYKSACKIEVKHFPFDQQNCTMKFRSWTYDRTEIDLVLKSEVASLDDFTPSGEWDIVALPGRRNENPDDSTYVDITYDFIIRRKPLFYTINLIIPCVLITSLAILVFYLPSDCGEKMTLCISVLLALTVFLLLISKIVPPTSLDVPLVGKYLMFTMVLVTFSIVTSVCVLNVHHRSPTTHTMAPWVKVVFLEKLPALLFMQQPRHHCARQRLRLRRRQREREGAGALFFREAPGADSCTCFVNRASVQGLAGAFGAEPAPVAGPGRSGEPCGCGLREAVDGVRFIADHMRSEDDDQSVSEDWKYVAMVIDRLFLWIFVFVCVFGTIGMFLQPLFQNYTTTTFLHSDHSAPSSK
Description: as §2, §3, §4

human α4β2 nAChR = molecular target: T2, human α4β2 nAChR (Homo sapiens, UniProt P17787+P43681); experiment: Two-electrode voltage-clamp recording, heterologously expressed α4β2 nAChRs (stoichiometry not distinguished); type: cell-based; details: wild-type, no ACh
T2 construct: expressed in transfected cells; host or cells: Xenopus laevis oocytes (cRNA injection)
T2 sequence (P43681 27-627): as the sequence (P43681 27-627) above
T2 sequence (P17787 26-502): as the sequence (P17787 26-502) above
Description: as §2
Xenopus oocytes were isolated, maintained, and injected with cRNA, as described previously.[21] Two-electrode voltage-clamp recordings were performed using a Warner Instruments OC-725C amplifier (Harvard Apparatus) with the oocyte membrane potential held at −60 mV, as described previously.[22] Oocytes were continuously perfused with a modified Ringer’s solution (115 mM NaCl, 2.5 mM KCl, 1.8 mM BaCl2, and 10 mM HEPES, pH 7.3). Application of compounds was controlled by LabChart software (AD Instruments) using a BPS-8 solenoid valve solution exchange system (ALA Scientific Inc.). Typically, agonists were applied for 5 s or until a plateau in the response was observed. Antagonists were preapplied for 30 s and then coapplied with agonist for 5 s or until a plateau in the response was observed.

[1] = molecular target: α4β2 nAChRs containing the β2^V278A subunit (Homo sapiens, UniProt P17787+P43681, V278A); details: no ACh
Chain of α4β2 nAChRs containing the β2^V278A subunit (P43681 27-627): as the sequence (P43681 27-627) above
Chain of α4β2 nAChRs containing the β2^V278A subunit (P17787 26-502 V278A): as the sequence (P17787 26-502) above, with V253A counted along it
From the text: (§1) Human nAChR subunit cDNAs in plasmid expression vector pSP64GL (pSP64GL-α4 and pSP64GL-β2) have been described previously.[18] […] Note that the numbering of these amino acids in the human nAChR α4 and β2 subunits is based on the intact protein sequence (including the signal sequence), as indicated in the EMBL/GenBank database entries NP_000735.1 and NP_000739.1, respectively.

[2] = molecular target: α4β2 nAChRs containing mutated α4^L283A (Homo sapiens, UniProt P17787+P43681, L283A); details: no ACh
Chain of α4β2 nAChRs containing mutated α4^L283A (P43681 27-627 L283A): as the sequence (P43681 27-627) above, with L257A counted along it
Chain of α4β2 nAChRs containing mutated α4^L283A (P17787 26-502): as the sequence (P17787 26-502) above
From the text: as §1

[3] = molecular target: α4β2 nAChRs containing mutated α4^S284A (Homo sapiens, UniProt P17787+P43681, S284A); details: no ACh
Chain of α4β2 nAChRs containing mutated α4^S284A (P43681 27-627 S284A): as the sequence (P43681 27-627) above, with S258A counted along it
Chain of α4β2 nAChRs containing mutated α4^S284A (P17787 26-502, stated change not applied): as the sequence (P17787 26-502) above
From the text: as §1

human α7 nAChRs = details: previous studies; cited from earlier work
[4] = 100 μM antibiotic coapplied with a range of ACh concentrations

Chain of human (α4)3(β2)2 nAChR (P43681 27-627): as the sequence (P43681 27-627) above
Chain of human (α4)3(β2)2 nAChR (P17787 26-502): as the sequence (P17787 26-502) above

SMILES | remaining activity at 100 µM (human (α4)2(β2)3 nAChR) | remaining activity at 100 µM (human (α4)3(β2)2 nAChR) | stoichiometry selectivity of antagonism, (α4)2(β2)3 versus (α4)3(β2)2 nAChRs (human (α4)2(β2)3 nAChR) | other results
CC(=O)OCC[N+](C)(C)C [ACh, acetylcholine] | – | – | – | Hill coefficient of ACh dose-response curve (human (α4)3(β2)2 nAChR; absence of antibiotic): 0.74 ± 0.
CCn1nc(C(=O)O)c(=O)c2cc3c(cc21)OCO3 [cinoxacin] | 58.2 ± 1.2% | 60.4 ± 0.61% | – | Hill coefficient of ACh dose-response curve in the presence of the antibiotic (human (α4)2(β2)3 nAChR; 100 μM antibiotic): 1.0 ± 0.1; maximal normalized ACh response in the presence of the antibiotic (human (α4)2(β2)3 nAChR; [4]): 76.0 ± 1.5%; effect when applied alone (human α4β2 nAChR): no effect; effect when applied alone [1]: no effect; effect when applied alone [2]: no effect; effect when applied alone [3]: no effect; Hill coefficient of ACh dose-response curve in the presence of the antibiotic (human (α4)3(β2)2 nAChR; 100 μM antibiotic): 0.62 ± 0.2; maximal normalized ACh response in the presence of the antibiotic (human (α4)3(β2)2 nAChR; [4]): 80.0 ± 0.9%
CN1CCN(c2cc3c(cc2F)c(=O)c(C(=O)O)cn3-c2ccc(F)cc2)CC1 [difloxacin] | 39.9 ± 3.02% | 57.2 ± 0.97% | significantly greater antagonism on (α4)2(β2)3 nAChRs than on (α4)3(β2)2 nAChRs | –
CCn1cc(C(=O)O)c(=O)c2cc(F)c(N3CCNCC3)nc21 [enoxacin] | 23.5 ± 1.65% | 74.6 ± 1.88% | significantly greater antagonism on (α4)2(β2)3 nAChRs than on (α4)3(β2)2 nAChRs | –
CCN1CCN(c2cc3c(cc2F)c(=O)c(C(=O)O)cn3C2CC2)CC1 [enrofloxacin] | 13.2 ± 0.46% | 64.8 ± 1.01% | significantly greater antagonism on (α4)2(β2)3 nAChRs than on (α4)3(β2)2 nAChRs | –
CCn1cc(C(=O)O)c(=O)c2cc(F)c(N3CCNCC3)cc21 [norfloxacin] | 13 ± 1% | 54.1 ± 3.4% | significantly greater antagonism on (α4)2(β2)3 nAChRs than on (α4)3(β2)2 nAChRs | –
CCn1cc(C(=O)O)c(=O)c2cc3c(cc21)OCO3 [oxolinic acid] | 59.5 ± 0.99% | 60.4 ± 0.72% | no significant difference | –
CCn1cc(C(=O)O)c(=O)c2cc(F)c(N3CCN(C)CC3)cc21 [pefloxacin] | – | – | – | mode of action on α7 nAChR (human α7 nAChRs): noncompetitive antagonist
C[C@@H]1CN(c2c(F)c(N)c3c(=O)c(C(=O)O)cn(C4CC4)c3c2F)C[C@H](C)N1 [sparfloxacin] | 17.4 ± 1.12% | 58.4 ± 1.72% | significantly greater antagonism on (α4)2(β2)3 nAChRs than on (α4)3(β2)2 nAChRs | –

Source: publication PMC9204775 (ACS Chemical Neuroscience, 2022)
